Experimental data from PubChem BioAssay AID248 (DTP/NCI, 2004).
Several values for one entry are separate records, joined by “and”; a condition that tells them apart may be missing. Identical values can stand only once. Toxic doses and inconclusive results are not listed. Cut-off read from the data, not from the text of the source: active = T/C of 150% or more; inactive = T/C below 125%.

Tested on: L1210 leukemia ip in BDF1 mice, survival T/C
Experiment: NCI In Vivo Anticancer Drug Screen. Data for tumor model L1210 Leukemia (intraperitoneal) in B6D2F1 (BDF1) mice
Conditions: endpoint: mean survival time, higher = longer survival
Outline: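 Survival endpoint. Drug-treated group vs vehicle group, expressed as T divided by C. Tumor passaged by transplantation.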

[1] = dose: 100.0 mg/kg/injection, schedule: Q04DX002 (ip), vehicle: Klucel (hydroxypropylcellulose) (HPC)
[2] = dose: 200.0 mg/kg/injection, schedule: Q04DX002 (ip), vehicle: Klucel (hydroxypropylcellulose) (HPC)
[3] = dose: 400.0 mg/kg/injection, schedule: Q04DX002 (ip), vehicle: Klucel (hydroxypropylcellulose) (HPC)
[4] = dose: 100.0 mg/kg/injection, schedule: Q01DX009 (ip), vehicle: Klucel (hydroxypropylcellulose) (HPC)
[5] = dose: 200.0 mg/kg/injection, schedule: Q01DX009 (ip), vehicle: Klucel (hydroxypropylcellulose) (HPC)
[6] = dose: 400.0 mg/kg/injection, schedule: Q01DX009 (ip), vehicle: Klucel (hydroxypropylcellulose) (HPC)
[7] = dose: 100.0 mg/kg/injection, schedule: Q04DX003 (ip), vehicle: Klucel (hydroxypropylcellulose) (HPC)
[8] = dose: 200.0 mg/kg/injection, schedule: Q04DX003 (ip), vehicle: Klucel (hydroxypropylcellulose) (HPC)
[9] = dose: 400.0 mg/kg/injection, schedule: Q04DX003 (ip), vehicle: Klucel (hydroxypropylcellulose) (HPC)
[10] = dose: 100.0 mg/kg/injection, schedule: Q04DX003 (ip), vehicle: saline with Tween-80
[11] = dose: 200.0 mg/kg/injection, schedule: Q04DX003 (ip), vehicle: saline with Tween-80

Measured: T/C

O=[N+]1c2ccccc2N([O-])C2CCCCC21 (stereo not given)
inactive: [1] 93 % of control | [2] 93 % of control | [3] 104 % of control

COc1cc(O)c2c(c1)Cc1cc(C)cc(O)c1C2=O
inactive: dose: 12.5 mg/kg/injection, schedule: Q04DX002 (ip), vehicle: Klucel (hydroxypropylcellulose) (HPC) 93 % of control | dose: 25.0 mg/kg/injection, schedule: Q04DX002 (ip), vehicle: Klucel (hydroxypropylcellulose) (HPC) 93 % of control

CCCCCC(=O)O
inactive: dose: 100.0 mg/kg/injection, schedule: Q01DX009 (ip), vehicle: saline 100 % of control | dose: 200.0 mg/kg/injection, schedule: Q01DX009 (ip), vehicle: saline 98 % of control | dose: 400.0 mg/kg/injection, schedule: Q01DX009 (ip), vehicle: saline 89 % of control

Cc1ccc(NC(=O)Nc2cccc(F)c2)cc1C
inactive: [4] 94 % of control | [5] 97 % of control | [6] 95 % of control

O=C(NCCCl)Sc1ccc(Cl)cc1
inactive: dose: 20.0 mg/kg/injection, schedule: Q04DX003 (ip), vehicle: Klucel (hydroxypropylcellulose) (HPC) 92 % of control | dose: 40.0 mg/kg/injection, schedule: Q04DX003 (ip), vehicle: Klucel (hydroxypropylcellulose) (HPC) 90 % of control | dose: 80.0 mg/kg/injection, schedule: Q04DX003 (ip), vehicle: Klucel (hydroxypropylcellulose) (HPC) 93 % of control

CCOC(=O)c1cccs1
inactive: [4] 99 % of control | [7] 103 % of control | [5] 95 % of control | [8] 100 % of control | [6] 97 % of control | [9] 105 % of control

CC([NH-])=O.CC([NH-])=O.[Pt+2]
inactive: dose: 100.0 mg/kg/injection, schedule: Q01DX009 (ip), vehicle: water 105 % of control | dose: 100.0 mg/kg/injection, schedule: Q04DX003 (ip), vehicle: water 101 % of control | dose: 200.0 mg/kg/injection, schedule: Q01DX009 (ip), vehicle: water 95 % of control | dose: 200.0 mg/kg/injection, schedule: Q04DX003 (ip), vehicle: water 103 % of control

Cc1cccc2c(Br)cccc12
inactive: dose: 100.0 mg/kg/injection, schedule: Q01DX001 (ip), vehicle: carboxymethylcellulose (CMC) 97 % of control | dose: 200.0 mg/kg/injection, schedule: Q01DX001 (ip), vehicle: carboxymethylcellulose (CMC) 95 % of control | dose: 400.0 mg/kg/injection, schedule: Q01DX001 (ip), vehicle: carboxymethylcellulose (CMC) 93 % of control

BrC1=C(Br)CCCC1
inactive: dose: 100.0 mg/kg/injection, schedule: Q04DX003 (ip), vehicle: saline 91 % of control | dose: 200.0 mg/kg/injection, schedule: Q04DX003 (ip), vehicle: saline 91 % of control | dose: 400.0 mg/kg/injection, schedule: Q04DX003 (ip), vehicle: saline 93 % of control

CCOc1ccc(NC(=S)NCCc2ccccc2)cc1
inactive: [4] 102 % of control | [5] 102 % of control | [6] 105 % of control

Cc1ccc(NC(=O)NCC2(C)CC(NC(=O)Nc3ccc(C)cc3)CC(C)(C)C2)cc1 (stereo not given)
inactive: dose: 50.0 mg/kg/injection, schedule: Q01DX009 (ip), vehicle: saline with Tween-80 87 % of control | [10] 91 % of control | [11] 91 % of control

Clc1ccc(-c2nnc(-c3cccc4ccccc34)o2)cc1Cl
inactive: dose: 100.0 mg/kg/injection, schedule: Q01DX009 (ip), vehicle: saline with Tween-80 89 % of control | [10] 86 % of control | [11] 92 % of control | dose: 400.0 mg/kg/injection, schedule: Q01DX009 (ip), vehicle: saline with Tween-80 86 % of control | dose: 400.0 mg/kg/injection, schedule: Q04DX003 (ip), vehicle: saline with Tween-80 86 % of control

Cc1cnc(C(=O)O)c(N)n1
inactive: dose: 75.0 mg/kg/injection, schedule: Q01DX001 (ip), vehicle: saline 105 % of control | dose: 150.0 mg/kg/injection, schedule: Q01DX001 (ip), vehicle: saline 93 % of control

c1ccc(-c2nc3ccccc3[nH]2)cc1
inactive: dose: 55.0 mg/kg/injection, schedule: Q01DX Z (ip), vehicle: methylcellulose (MC) 107 % of control | dose: 83.0 mg/kg/injection, schedule: Q01DX Z (ip), vehicle: methylcellulose (MC) 103 % of control | [1] 109 % of control and 95 % of control | dose: 125.0 mg/kg/injection, schedule: Q01DX Z (ip), vehicle: methylcellulose (MC) 100 % of control | [2] 103 % of control and 106 % of control | [3] 109 % of control and 98 % of control

Cc1ncc(CO)c(C2NOCc3nscc32)c1O (stereo not given)
inactive: dose: 3.12 mg/kg/injection, schedule: Q01DX009 (ip), vehicle: Klucel (hydroxypropylcellulose) (HPC) 94 % of control | dose: 3.12 mg/kg/injection, schedule: Q01DX009 (ip), vehicle: other 98 % of control | dose: 6.25 mg/kg/injection, schedule: Q01DX009 (ip), vehicle: other 100 % of control | dose: 12.5 mg/kg/injection, schedule: Q01DX009 (ip), vehicle: Klucel (hydroxypropylcellulose) (HPC) 89 % of control | dose: 12.5 mg/kg/injection, schedule: Q01DX009 (ip), vehicle: other 107 % of control | dose: 12.5 mg/kg/injection, schedule: Q04DX003 (ip), vehicle: Klucel (hydroxypropylcellulose) (HPC) 92 % of control

CCN(CC)CCOc1ccc(C(=O)/C(=C/c2ccc3c(c2)OCO3)c2ccccc2)cc1
inactive: dose: 100.0 mg/kg/injection, schedule: Q04DX003 (sc), vehicle: olive oil, sesame oil, peanut oil 103 % of control | dose: 200.0 mg/kg/injection, schedule: Q04DX003 (sc), vehicle: olive oil, sesame oil, peanut oil 97 % of control | dose: 400.0 mg/kg/injection, schedule: Q04DX003 (sc), vehicle: olive oil, sesame oil, peanut oil 100 % of control

Cn1c(=O)cc(C=Nc2ccc(N=Nc3ccccc3)cc2)c2ccccc21
inactive: dose: 100.0 mg/kg/injection, schedule: Q01DX001 (ip), vehicle: saline 94 % of control | dose: 200.0 mg/kg/injection, schedule: Q01DX001 (ip), vehicle: saline 96 % of control | dose: 400.0 mg/kg/injection, schedule: Q01DX001 (ip), vehicle: saline 87 % of control

CC(=O)Oc1c2ccccc2cc2c1ccc1ccccc12
inactive: [1] 119 % of control | [2] 100 % of control | [3] 106 % of control

COC(=O)C(CCSC)NC(=O)CNC(=O)OCc1ccccc1 (stereo not given)
inactive: [7] 99 % of control | [8] 97 % of control | [9] 92 % of control

Cc1cc(Cl)c(C)cc1Cl
inactive: dose: 100.0 mg/kg/injection, schedule: Q01DX009 (ip), vehicle: saline sonified 107 % of control | dose: 100.0 mg/kg/injection, schedule: Q04DX003 (ip), vehicle: saline sonified 100 % of control | dose: 200.0 mg/kg/injection, schedule: Q01DX009 (ip), vehicle: saline sonified 110 % of control | dose: 200.0 mg/kg/injection, schedule: Q04DX003 (ip), vehicle: saline sonified 101 % of control | dose: 400.0 mg/kg/injection, schedule: Q01DX009 (ip), vehicle: saline sonified 102 % of control | dose: 400.0 mg/kg/injection, schedule: Q04DX003 (ip), vehicle: saline sonified 94 % of control

CCN(CC)C(=O)Nc1ccc(C(=O)O)c(O)c1
inactive: [7] 95 % of control | [8] 90 % of control | [9] 90 % of control

O=C(CC(CC(=O)c1ccccc1)c1ccccn1)c1ccccc1
inactive: dose: 50.0 mg/kg/injection, schedule: Q01DX001 (ip), vehicle: other 105 % of control | dose: 100.0 mg/kg/injection, schedule: Q01DX001 (ip), vehicle: other 100 % of control | dose: 200.0 mg/kg/injection, schedule: Q01DX001 (ip), vehicle: other 96 % of control | dose: 400.0 mg/kg/injection, schedule: Q01DX001 (ip), vehicle: other 102 % of control
